Experimental data reported in patent publication US20230015949A1, “NEISSERIA TREATMENT USING CANNABINOIDS” (priority 2019, published 2023).
Converted amounts (≈) assume the structure as drawn. Like-named read-outs stand apart in the source and are kept apart here.

Assays:
Format in all cases: cell-based
Neisseria gonorrhoeae [1] = test: Agar dilution MIC assay, 25 isolates (Example 3); settings: for MIC: Neisseria gonorrhoeae, agar dilution
Method: The MIC of Neisseria gonorrhoea was established using an agar dilution MIC assay.
Test drugs were provided by Micromyx. All stock solutions were allowed to stand for at least 1 hr prior to use to auto-sterilize. Leftover stock solutions of comparator drugs were aliquoted and stored at −80° C. Suppliers, catalog/lot numbers, solvents, stock concentrations and testing ranges were as follows.
Test organisms were reference strains from the American Type Culture Collection (ATCC; Manassas, Va.), isolates from WHO, isolates from the CDC antibiotic resistance bank, and clinical isolates from the Micromyx (MMX) repository. Upon receipt at Micromyx, the isolates were streaked under suitable conditions onto agar medium appropriate to each organism and were incubated for 24-48 hr at 35° C. Colonies harvested from these growth plates were resuspended in the appropriate medium containing a cryoprotectant. Aliquots of each suspension were then frozen at −80° C.
Prior to testing, the isolates were sub-cultured onto Chocolate agar (Becton Dickenson [BD]/BBL; Sparks, Md., Cat. No. 221267, Lot No. 9346275) and placed at 35° C. in a CO2 incubator for 24 hrs.
MIC values were determined using the agar dilution method (1, 2). All serial dilutions and liquid handling were performed by hand using sterile pipettes. […] Cannabidiol was prepared as a stock solution at 100× the final concentration in the appropriate solvent and diluted according to CLSI guidelines.
Each test agent was mixed with molten (50-55° C.) GC media agar supplemented with 1% IsoVitalex. […] All other test agents were added to the medium in a ratio of 0.2 mL 100× test agent to 19.8 mL agar. Once test agents were added to the agar in a sterile tube, they were mixed gently and then poured into a sterile 110×15 mm petri dish. Plates were allowed to solidify at room temperature and placed in a laminar air flow hood with the covers off to remove condensed moisture on the agar surface.
Next, each isolate was suspended to the equivalent of a 0.5 McFarland standard in saline using a Siemens Microscan turbidity meter and diluted 1:10. Each bacterial cell suspension was then transferred to wells in a stainless-steel replicator block. The prongs on the replicator deliver approximately 1-2 μl of inoculum to an agar surface. The resulting inoculum spots contained approximately 10^4 cells/spot.
Each agar plate containing either test compound or no drug (control) was stamped with the replicator. All plates were placed with the agar surface up to allow for the inoculum to soak into the agar. The plates were inverted and incubated at 35° C. for 24 hrs in a CO2 incubator and finally inspected for growth.

[2] = system: Staphylococcus aureus ATCC 29213; test: Broth microdilution MIC assay, quality control strain (Example 2); settings: ATCC29213, S. aureus ATCC 29213 (QC), CAMHB
Method: Following incubation, colonies were harvested from these plates and cell suspensions prepared and frozen at −80° C. with a cryoprotectant. Prior to testing, N. gonorrhoeae isolates were streaked onto Chocolate Agar [Becton Dickinson, (BD), Sparks, Md.; Lot No. 922807]; Staphylococcus aureus ATCC 29213 tested for quality control (QC) purposes was streaked onto Trypticase Soy Agar with 5% Sheep Blood (TSA II; BD; Lot No. 9219399).
Cation-adjusted Mueller Hinton broth (CAMHB; BD; Lot No. 9019592) was used for MIC testing of S. aureus ATCC 29213 for QC purposes.
MIC values were determined using a broth microdilution procedure described by CLSI (1, 2). Automated liquid handlers (Multidrop 384, Labsystems, Helsinki, Finland; Biomek 2000 and Biomek FX, Beckman Coulter, Fullerton Calif.) were used to conduct serial dilutions and liquid transfers.
(§1) To prepare the drug mother plates, which would provide the serial drug dilutions for the replicate daughter plates, the wells of columns 2 through 12 of standard 96-well microdilution plates (Costar 3795) were filled with 150 μl of the designated diluent for each row of drug. The test articles and comparator compounds (300 μl at 100× the highest concentration to be tested) were dispensed into the appropriate wells in column 1. The Biomek 2000 was then used to make 2-fold serial dilutions in the mother plates from column 1 through column 11. The wells of column 12 contained no drug and served as the organism growth control wells for the assay.
(§2) The daughter plates were loaded with 190 μL per well of the appropriate test medium for the tested organism using the Multidrop 384. The daughter plates were completed on the Biomek FX instrument which transferred 2 μL of drug solution from each well of a mother plate to the corresponding well of each daughter plate in a single step. Daughter plates for the testing of anaerobes were allowed to pre-reduce in the Bactron II anaerobe chamber for 2 hr prior to inoculation.
(§3) A standardized inoculum of each test organism was prepared per CLSI methods (1, 2). The inoculum for each organism was dispensed into sterile reservoirs divided by length (Beckman Coulter), and the Biomek 2000 was used to inoculate the plates. Daughter plates were placed on the Biomek 2000 work surface in reverse orientation so that inoculation took place from low to high drug concentration. Anaerobic organisms were inoculated by hand in the Bactron II anaerobic chamber. Bacterial plates were then inoculated with 10 μL of the inoculum resulting in a final cell density of approximately 5×10^5 CFU/mL.
Plates were stacked 3 to 4 high, covered with a lid on the top plate and placed in plastic bags. […] The MIC was read and recorded as the lowest concentration of drug that inhibited visible growth of the organism.

Neisseria gonorrhoeae [3] = test: Broth microdilution MIC testing (Example 1)
Method: (§4) In this study, to evaluate the spectrum of activity, cannabidiol (CBD) was profiled against Neisseria. Testing was conducted following guidelines recommended by the Clinical and Laboratory Standards Institute (CLSI, 1-4), using vancomycin, meropenem, levofloxacin, and gentamicin as comparators for testing aerobic bacteria.
(§5) Test agents were supplied by Micromyx. Stock solutions of all compounds were prepared on the first day of testing at 101× the highest test concentration using solvents recommended by CLSI. CBD was prepared fresh on each of testing.
(§6) The test organisms evaluated in this study consisted of clinical isolates from the Micromyx Repository, reference isolates from the American Type Culture Collection (ATCC; Manassas, Va.), isolates from the antibiotic resistance bank from the Centers for Disease Control and Prevention (CDC; Atlanta, Ga.), and isolates from the Network on Antimicrobial Resistance in Staphylococcus aureus (NARSA; BEI Resources, Manassas, Va.). Upon initial receipt at Micromyx, the organisms were sub-cultured onto an appropriate agar medium. Following incubation, colonies were harvested from these plates and cell suspensions prepared and frozen at −80° C. with a cryoprotectant.
(§7) Prior to testing, Neisseria was streaked onto Chocolate agar (BD; Lot No. 9228071) and incubated at 35° C. in 5% CO2 for 24 hr.
(§8) For Neisseria, a modified medium described by the ATCC as capable of supporting growth was used. This medium contains 15 g Oxoid Special Peptone, 1 g corn starch (Ward's Science; Rochester, N.Y.; Lot 39-3271), 5 g NaCl (VWR; 57897), 4 g K2HPO4 (Sigma; Lot SLBT7061), 1 g KH2PO4 (SLBC1921V), and 1% IsoVitaleX (BD; Lot 8323954) enrichment per 500 mL.
(§9) MIC values were determined using a broth microdilution procedure described by CLSI (1-4). Automated liquid handlers (Multidrop 384, Labsystems, Helsinki, Finland; Biomek 2000 and Biomek FX, Beckman Coulter, Fullerton, Calif.) were used to conduct serial dilutions and liquid transfers.
as §1, with “article” for “articles”, “101×” for “100×”
as §2, with “step.” for “step. Daughter plates for the testing of anaerobes were allowed to pre-reduce in the Bactron II anaerobe chamber for 2 hr prior to inoculation.”
as §3, with “(1-4).” for “(1, 2).”, “Plates” for “Anaerobic organisms”, “were” for “were inoculated by hand in the Bactron II anaerobic chamber. Bacterial plates were then”, “CFU/mL per well.” for “CFU/mL.”
The plates for testing of aerobic organisms were stacked 3 to 4 high, covered with a sterile lid, and incubated at 35° C. and 5% CO2 for the time periods specified in CLSI (1-4). […] Following incubation, the microplates were removed from the incubator and viewed from the bottom using a plate viewer. […] The MIC was read and recorded as the lowest concentration of drug that inhibited visible growth of the organism.

Neisseria meningitidis = test: Broth microdilution MIC testing (Example 1)
Method: as §4, §5, §6, §7, §8, §9
as §1, with “article” for “articles”, “101×” for “100×”
as §2, with “step.” for “step. Daughter plates for the testing of anaerobes were allowed to pre-reduce in the Bactron II anaerobe chamber for 2 hr prior to inoculation.”
A standardized inoculum of each test organism was prepared per CLSI methods (1-4). The inoculum for each organism was dispensed into sterile reservoirs divided by length (Beckman Coulter), and the Biomek 2000 was used to inoculate the plates. […]
The plates for testing of aerobic organisms were stacked 3 to 4 high, covered with a sterile lid, and incubated at 35° C. and 5% CO2 for the time periods specified in CLSI (1-4). […] The MIC was read and recorded as the lowest concentration of drug that inhibited visible growth of the organism.

[4] = 25 isolates, agar dilution assay, MIC distribution
[5] = Neisseria gonorrhoeae, ATCC49226, N. gonorrhoeae MMX 0683 / ATCC 49226, broth microdilution, plate read at 40 hr, read-out: MIC
[6] = Neisseria gonorrhoeae, N. gonorrhoeae MMX 6746, broth microdilution, read-out: MIC
[7] = Neisseria gonorrhoeae, N. gonorrhoeae MMX 6757, broth microdilution, plate read at 40 hr, read-out: MIC
[8] = Neisseria meningitidis, ATCC13090, N. meningitidis MMX 0707 / ATCC 13090, broth microdilution, read-out: MIC

Compound: O=C(O)c1cn(C2CC2)c2cc(N3CCNCC3)c(F)cc2c1=O [CIP, ciprofloxacin]
- Number of isolates at MIC 0.015 μg mL^−1 (Neisseria gonorrhoeae [1]; [4]): 3
- Number of isolates at MIC 0.03 μg mL^−1 (Neisseria gonorrhoeae [1]; [4]): 0
- Number of isolates at MIC 0.06 μg mL^−1 (Neisseria gonorrhoeae [1]; [4]): 0
- Number of isolates at MIC 0.12 μg mL^−1 (Neisseria gonorrhoeae [1]; [4]): 1
- Number of isolates at MIC 0.25 μg mL^−1 (Neisseria gonorrhoeae [1]; [4]): 0
- Number of isolates at MIC 0.5 μg mL^−1 (Neisseria gonorrhoeae [1]; [4]): 0
- Number of isolates at MIC 1 μg mL^−1 (Neisseria gonorrhoeae [1]; [4]): 0
- Number of isolates at MIC 4 μg mL^−1 (Neisseria gonorrhoeae [1]; [4]): 2
- Number of isolates at MIC >8 μg mL^−1 (Neisseria gonorrhoeae [1]; [4]): 11
- Number of isolates at MIC ≤0.004 μg mL^−1 (Neisseria gonorrhoeae [1]; [4]): 6
- MIC (Neisseria gonorrhoeae [1]; N. gonorrhoeae CDC 0177): 0.015 µg/mL (≈ 0.0453 µM)
- MIC (Neisseria gonorrhoeae [1]; N. gonorrhoeae CDC 0181): 0.015 µg/mL (≈ 0.0453 µM)
- MIC (Neisseria gonorrhoeae [1]; NCTC13478, N. gonorrhoeae NCTC 13478 (WHO G)): 0.12 µg/mL (≈ 0.362 µM)
- MIC (Neisseria gonorrhoeae [1]; NCTC13481, N. gonorrhoeae NCTC 13481 (WHO M)): 2 µg/mL (≈ 6.04 µM)
- MIC (Neisseria gonorrhoeae [1]; NCTC13483, N. gonorrhoeae NCTC 13483 (WHO O)): 0.015 µg/mL (≈ 0.0453 µM)
- MIC [2]: 0.25 µg/mL (≈ 0.754 µM)

Compound: C[C@H]1COc2c(N3CCN(C)CC3)c(F)cc3c(=O)c(C(=O)O)cn1c23 [LVX, levofloxacin]
- MIC (Neisseria gonorrhoeae [3]; [5]): 0.002 µg/mL (≈ 0.00553 µM)
- MIC (Neisseria gonorrhoeae [3]; [6]): 4 µg/mL (≈ 11.1 µM)
- MIC (Neisseria gonorrhoeae [3]; [7]): 0.015 µg/mL (≈ 0.0415 µM)
- MIC (Neisseria meningitidis; [8]): 0.004 µg/mL (≈ 0.0111 µM)

Compound: C[C@@H](O)[C@H]1C(=O)N2C(C(=O)O)=C(S[C@@H]3CN[C@H](C(=O)N(C)C)C3)[C@H](C)[C@H]12 [MEM, meropenem]
- MIC (Neisseria gonorrhoeae [3]; [5]): < 0.03 µg/mL
- MIC (Neisseria gonorrhoeae [3]; [6]): 0.06 µg/mL (≈ 0.156 µM)
- MIC (Neisseria gonorrhoeae [3]; [7]): < 0.03 µg/mL
- MIC (Neisseria meningitidis; [8]): < 0.03 µg/mL

Compound: CN[C@H](CC(C)C)C(=O)N[C@H]1C(=O)N[C@@H](CC(N)=O)C(=O)N[C@H]2C(=O)N[C@H]3C(=O)N[C@H](C(=O)N[C@H](C(=O)O)c4cc(O)cc(O)c4-c4cc3ccc4O)[C@H](O)c3ccc(c(Cl)c3)Oc3cc2cc(c3O[C@@H]2O[C@H](CO)[C@@H](O)[C@H](O)[C@H]2O[C@H]2C[C@](C)(N)[C@H](O)[C@H](C)O2)Oc2ccc(cc2Cl)[C@H]1O [VAN, vancomycin]
- MIC (Neisseria gonorrhoeae [3]; Neisseria gonorrhoeae): 16 µg/mL (≈ 11 µM)
- MIC (Neisseria gonorrhoeae [3]; Neisseria gonorrhoeae, 40 h): 32 µg/mL (≈ 22.1 µM)
- MIC (Neisseria gonorrhoeae [3]; Neisseria gonorrhoeae, ATCC49226, 40 h): 8 µg/mL (≈ 5.52 µM)
- MIC (Neisseria meningitidis; Neisseria meningitidis, ATCC13090): > 32 µg/mL

Compound: gentamicin
- MIC (Neisseria gonorrhoeae [3]; N. gonorrhoeae MMX 0683 / ATCC 49226, broth microdilution, plate read at 40 hr): 4 µg/mL
- MIC (Neisseria gonorrhoeae [3]; N. gonorrhoeae MMX 6746, broth microdilution): 16 µg/mL
- MIC (Neisseria gonorrhoeae [3]; N. gonorrhoeae MMX 6757, broth microdilution, plate read at 40 hr): 8 µg/mL
- MIC (Neisseria meningitidis; N. meningitidis MMX 0707 / ATCC 13090, broth microdilution): 8 µg/mL
